# PubChem BioAssay (NCI)
#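 These data come from cells grown in 96-well plates and exposed to compound for 48 hours at five concentrations. Abbreviation: GI50, concentration required for 50% inhibition of growth. TGI: total growth inhibition.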
# Legend:
# Assay in all cases: NCI-60 cell line screen, 48 h
# [1] = system: SN12C renal
# [2] = system: MDA-MB-435
# [3] = system: LOX IMVI melanoma
# [4] = system: T-47D breast
# [5] = system: HT29 colon
# [6] = system: CAKI-1 renal
# [7] = system: UACC-62 melanoma
# [8] = system: NCI/ADR-RES ovarian
# [9] = system: OVCAR-5 ovarian
# [10] = system: MDA-MB-231 breast
# [11] = system: OVCAR-3 ovarian
# [12] = system: HCC-2998 colon
# [13] = system: U251 CNS
# [14] = system: MOLT-4 leukemia
# [15] = system: SW-620 colon
# [16] = system: HCT-116 colon
SMILES,TGI [1] [µM],TGI [2] [µM],TGI [3] [µM],TGI [4] [µM],TGI [5] [µM],TGI [6] [µM],TGI [7] [µM],TGI [8] [µM],TGI [9] [µM],TGI [10] [µM],TGI [11] [µM],TGI [12] [µM],TGI [13] [µM],TGI [14] [µM],TGI [15] [µM],TGI [16] [µM],GI50 [3] [µM],GI50 [12] [µM],GI50 [14] [µM]
CC1OC(OC2C(OC(=O)[C@@H]3CC(C)(C)C[C@@H]4C5=CC[C@@H]6[C@@]7(C)C[C@H](O)[C@H](OC8OC(CO)C(O)C(O)C8O)[C@@](C)(CO)C7[C@H](O)C[C@@]6(C)[C@]5(C)C[C@@H](O)[C@H]43)OCC(O)C2O)C(O)C(O)C1O (stereo partly drawn),> 15,> 15,> 15,> 15,> 15,> 15,> 15,> 15,> 15,> 15,> 15,> 15,> 15,> 15,> 15,> 15,–,–,–
CC(=O)c1cccc(Nc2nc3ccc(Cl)cc3c3[nH]c4ccccc4c23)c1,> 90.8,> 100,> 100,50.6,48.5,> 36.7,24.4,79.5,61.6,63.8,8.16,> 100,14.7,> 100,> 85.6,> 54.5,5.46,14.2,6.41
CC1=C(C)C1[N+](=O)[O-],> 100,> 100,> 100,> 100,> 100,> 100,> 100,> 100,> 100,> 100,> 100,> 100,> 100,> 100,> 100,> 100,–,–,–
CN(N)/N=N/c1nc[nH]c1[N+](=O)[O-],> 100,> 100,> 100,> 100,> 100,40.9,> 100,> 100,> 100,60.9,> 100,> 100,> 100,54.6,> 100,> 100,–,–,–
Cc1c(Cl)c(S(N)(=O)=O)cc2c1NC=NS2(=O)=O,> 100,> 100,> 100,> 100,> 100,> 100,> 100,> 100,> 100,> 100,> 100,> 100,> 100,> 100,> 100,> 100,–,–,–
CC1=NN(C(=O)CC(=O)Nc2ccc(C)cc2)C(=O)C1N=Nc1ccc(S(=O)(=O)c2ccc(N=NC3C(=O)N(C(=O)CC(=O)Nc4ccc(C)cc4)N=C3C)cc2)cc1 (stereo not drawn),> 100,> 100,> 100,> 100,–,> 100,> 100,> 100,> 100,> 100,> 100,> 100,> 100,> 100,> 100,> 100,–,–,–
